In PubChem BioAssay (NCI):
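Briefly, cells in 96-well plates were exposed to five compound concentrations for 48 h, and endpoints were estimated by linear interpolation. At the TGI there is no net growth.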

Key:
Test in all cases: NCI anticancer screen, dose series, 48 h
[1] = system: HCT-116 colon
[2] = system: RXF 393 renal
[3] = system: SK-MEL-2 melanoma
[4] = system: NCI-H23 lung
[5] = system: DU-145 prostate
[6] = system: COLO 205 colon
[7] = system: IGROV1 ovarian
[8] = system: TK-10 renal
[9] = system: HT29 colon
[10] = system: OVCAR-4 ovarian
[11] = system: SF-539 CNS
[12] = system: UACC-257 melanoma
[13] = system: MDA-MB-231 breast
[14] = system: UO-31 renal
[15] = system: HCT-15 colon
[16] = system: MALME-3M melanoma
[17] = system: M14 melanoma
[18] = system: NCI-H460 lung
[19] = system: MOLT-4 leukemia
[20] = system: SK-MEL-5 melanoma
[21] = system: RPMI-8226 leukemia
[22] = system: SF-268 CNS
[23] = system: HCC-2998 colon
[24] = system: HS 578T breast
[25] = system: ACHN renal
[26] = system: NCI-H226 lung
[27] = system: NCI/ADR-RES ovarian
[28] = system: PC-3 prostate
[29] = system: SW-620 colon
[30] = system: EKVX NSCLC
[31] = system: HOP-62 NSCLC
[32] = system: HL-60(TB) leukemia
[33] = system: CAKI-1 renal
[34] = system: OVCAR-3 ovarian
[35] = system: SNB-75 CNS
[36] = system: SF-295 CNS
[37] = system: MDA-N
[38] = system: OVCAR-5 ovarian
[39] = system: HOP-92 NSCLC
[40] = system: MCF7 breast
[41] = system: U251 CNS
[42] = system: SNB-19 CNS
[43] = system: BT-549 breast
[44] = system: SN12C renal
[45] = system: LOX IMVI melanoma
[46] = system: T-47D breast
[47] = system: SR leukemia
[48] = system: NCI-H522 lung
[49] = system: OVCAR-8 ovarian
[50] = system: UACC-62 melanoma
[51] = system: K-562 leukemia
[52] = system: CCRF-CEM leukemia
[53] = system: KM12 colon
[54] = system: MDA-MB-435
[55] = system: SK-MEL-28 melanoma
[56] = system: A549 NSCLC
[57] = system: SK-OV-3 ovarian
[58] = system: 786-0 renal
[59] = system: A498 renal

Cc1cc(NS(=O)(=O)c2ccc(NC(=O)c3ccc4nc5ccccc5c(Nc5ccc(S(=O)(=O)Nc6cc(C)on6)cc5)c4c3)cc2)no1
TGI [1]: > 50 µM
TGI [2]: > 50 µM
TGI [3]: > 50 µM
TGI [4]: > 50 µM
TGI [5]: > 50 µM
TGI [6]: > 50 µM
TGI [7]: > 50 µM
TGI [8]: > 50 µM
TGI [9]: > 50 µM
TGI [10]: > 50 µM
TGI [11]: > 50 µM
TGI [12]: > 50 µM
TGI [13]: > 50 µM
TGI [14]: > 50 µM
TGI [15]: > 50 µM
TGI [16]: > 50 µM
TGI [17]: > 50 µM
TGI [18]: > 50 µM
TGI [19]: > 50 µM
TGI [20]: > 50 µM
TGI [21]: > 50 µM
TGI [22]: > 50 µM
TGI [23]: > 50 µM
TGI [24]: > 50 µM
TGI [25]: > 50 µM
TGI [26]: > 50 µM
TGI [27]: > 50 µM
TGI [28]: > 50 µM
TGI [29]: > 50 µM
TGI [30]: > 50 µM
TGI [31]: > 50 µM
TGI [32]: > 50 µM
TGI [33]: > 50 µM
TGI [34]: > 50 µM
TGI [35]: > 50 µM
TGI [36]: > 50 µM
TGI [37]: > 50 µM
TGI [38]: > 50 µM
TGI [39]: > 50 µM
TGI [40]: > 50 µM
TGI [41]: > 50 µM
TGI [42]: > 50 µM
TGI [43]: > 50 µM
TGI [44]: > 50 µM
TGI [45]: > 50 µM
TGI [46]: > 50 µM
TGI [47]: > 50 µM
TGI [48]: > 50 µM
TGI [49]: > 50 µM
TGI [50]: > 50 µM
TGI [51]: > 50 µM
TGI [52]: > 50 µM
TGI [53]: > 50 µM
TGI [54]: > 50 µM
TGI [55]: > 50 µM
TGI [56]: > 50 µM
TGI [57]: > 50 µM
TGI [58]: > 50 µM

Cc1cc(C)nc(NC(=S)Nc2ccc(Cl)cc2)c1
TGI [1]: > 100 µM
TGI [2]: > 100 µM
TGI [3]: > 100 µM
TGI [5]: > 100 µM
TGI [6]: > 100 µM
TGI [7]: > 100 µM
TGI [8]: > 100 µM
TGI [9]: > 100 µM
TGI [10]: 61.1 µM
TGI [11]: > 100 µM
TGI [12]: > 100 µM
TGI [13]: > 100 µM
TGI [14]: > 100 µM
TGI [15]: > 100 µM
TGI [16]: > 100 µM
TGI [17]: > 100 µM
TGI [18]: > 100 µM
TGI [19]: > 100 µM
TGI [20]: > 100 µM
TGI [21]: > 100 µM
TGI [22]: > 100 µM
TGI [24]: > 100 µM
TGI [26]: > 100 µM
TGI [27]: > 100 µM
TGI [28]: > 100 µM
TGI [29]: > 100 µM
TGI [30]: > 100 µM
TGI [31]: > 100 µM
TGI [32]: > 100 µM
TGI [33]: > 100 µM
TGI [34]: > 100 µM
TGI [35]: 63.7 µM
TGI [36]: > 100 µM
TGI [37]: > 100 µM
TGI [38]: > 100 µM
TGI [40]: > 100 µM
TGI [41]: > 100 µM
TGI [42]: > 100 µM
TGI [43]: > 100 µM
TGI [44]: > 100 µM
TGI [45]: > 100 µM
TGI [46]: > 100 µM
TGI [47]: > 100 µM
TGI [48]: 39.1 µM
TGI [49]: 71.5 µM
TGI [50]: > 100 µM
TGI [51]: > 100 µM
TGI [52]: > 100 µM
TGI [53]: > 100 µM
TGI [54]: > 100 µM
TGI [55]: > 100 µM
TGI [59]: > 100 µM
TGI [56]: > 100 µM
TGI [57]: > 100 µM
TGI [58]: 80.2 µM

COc1cc(S(=O)(=O)Nc2ccc(-c3csc(/N=C\c4cccs4)n3)cc2)ccc1Cl
TGI [1]: > 100 µM
TGI [3]: > 100 µM
TGI [4]: > 100 µM
TGI [5]: > 100 µM
TGI [6]: > 100 µM
TGI [7]: > 100 µM
TGI [8]: > 100 µM
TGI [9]: > 100 µM
TGI [10]: > 100 µM
TGI [11]: > 100 µM
TGI [12]: > 100 µM
TGI [13]: > 100 µM
TGI [14]: > 100 µM
TGI [15]: > 100 µM
TGI [16]: > 100 µM
TGI [17]: > 100 µM
TGI [18]: > 100 µM
TGI [20]: > 100 µM
TGI [21]: > 100 µM
TGI [22]: > 100 µM
TGI [23]: 70.1 µM
TGI [24]: > 100 µM
TGI [25]: > 100 µM
TGI [26]: > 100 µM
TGI [27]: > 100 µM
TGI [28]: > 100 µM
TGI [29]: > 100 µM
TGI [30]: > 100 µM
TGI [31]: > 100 µM
TGI [33]: > 100 µM
TGI [34]: > 100 µM
TGI [35]: 81.5 µM
TGI [36]: > 100 µM
TGI [37]: > 100 µM
TGI [38]: > 100 µM
TGI [39]: > 100 µM
TGI [40]: 48.5 µM
TGI [42]: > 100 µM
TGI [43]: > 100 µM
TGI [44]: > 100 µM
TGI [45]: > 100 µM
TGI [46]: 62.8 µM
TGI [47]: 52.2 µM
TGI [48]: > 100 µM
TGI [49]: > 100 µM
TGI [50]: 92.2 µM
TGI [51]: > 100 µM
TGI [52]: 80.3 µM
TGI [54]: 96.9 µM
TGI [55]: > 100 µM
TGI [59]: > 100 µM
TGI [56]: > 100 µM
TGI [57]: > 100 µM
TGI [58]: > 100 µM

Clc1cccc2[nH]ncc12
TGI [1]: > 100 µM
TGI [2]: > 100 µM
TGI [3]: > 100 µM
TGI [5]: > 100 µM
TGI [6]: > 100 µM
TGI [7]: > 100 µM
TGI [8]: > 100 µM
TGI [9]: > 100 µM
TGI [10]: > 100 µM
TGI [11]: > 100 µM
TGI [12]: > 100 µM
TGI [13]: > 100 µM
TGI [15]: > 100 µM
TGI [18]: > 100 µM
TGI [19]: > 100 µM
TGI [20]: > 100 µM
TGI [21]: > 100 µM
TGI [23]: > 100 µM
TGI [24]: > 100 µM
TGI [25]: > 100 µM
TGI [26]: > 100 µM
TGI [27]: > 100 µM
TGI [28]: > 100 µM
TGI [29]: > 100 µM
TGI [30]: 95.4 µM
TGI [31]: > 100 µM
TGI [32]: > 100 µM
TGI [33]: > 100 µM
TGI [34]: > 100 µM
TGI [35]: > 100 µM
TGI [36]: > 100 µM
TGI [37]: > 100 µM
TGI [38]: > 100 µM
TGI [39]: > 100 µM
TGI [40]: > 100 µM
TGI [41]: > 100 µM
TGI [42]: > 100 µM
TGI [43]: > 100 µM
TGI [44]: > 100 µM
TGI [45]: > 100 µM
TGI [46]: > 100 µM
TGI [47]: > 100 µM
TGI [48]: > 100 µM
TGI [49]: > 100 µM
TGI [50]: > 100 µM
TGI [51]: > 100 µM
TGI [52]: > 100 µM
TGI [53]: > 100 µM
TGI [54]: > 100 µM
TGI [55]: > 100 µM
TGI [59]: > 100 µM
TGI [56]: > 100 µM
TGI [57]: > 100 µM
TGI [58]: > 100 µM
